Structures can show the parent of a compound that is named as a salt. Where two headings read alike, the source gives them in different places.
How the values were obtained:
[1] = system: human prostate tissue; assay: Antagonism of phenylephrine-induced contraction of human prostatic tissue; details: pA2, phenylephrine-induced contraction, dose-ratio method
Experimental: An index of this efficacy can be obtained by determining the potency of α1 antagonists to antagonize the contraction of human prostatic tissue induced by an α1 agonist “in vitro”.
Prostatic adenomas were obtained at the time of surgery from patients with symptomatic BPH. […] Isometric tension was measured with a Grass Instrument FT03 force transducer interfaced with a computer. Tissue strips were contracted with varying concentrations of phenylephrine after incubating for 20 minutes in the absence and presence of at least three different concentrations of antagonist. Dose-response curves for phenylephrine were constructed, and the antagonist potency (pA2) was estimated by the dose-ratio method.

[2] = biological target: T1, human histamine H1 receptor (Homo sapiens, UniProt P35367); assay: [3H]mepyramine binding, histamine H1 receptor
T1 construct: host or cells: COS-7, transient, DEAE-dextran
Text: The coding sequence of the human histamine H1 receptor, homologous to the bovine H1 receptor, was obtained from a human hippocampal cDNA library, and was cloned into the eukaryotic expression vector pCEXV-3. The plasmid DNA for the H1 receptor is designated pcEXV-H1, and was deposited on Nov. […] This construct was transfected into COS-7 cells by the DEAE-dextran method.

[3] = biological target: T2, human 5HT1E receptor (Homo sapiens, UniProt P28566); assay: [3H]serotonin competition binding, 5HT1E receptor
T2 construct: host or cells: LM(tk-) clonal cell line 5HT1E-7
Experimental: (§1) 5HT1Dα, 5HT1Dβ, 5HT1E, 5HT1F Receptors: The cell lysates of LM(tk−) clonal cell line stably transfected with the genes encoding each of these 5HT receptor-subtypes were prepared as described above. The cell line for the 5HT1Dα receptor, designated as Ltk-8-30-84, was deposited on Apr. […] The cell for the 5HT1Dβ receptor, designated as Ltk-11, was deposited on Apr. […] The cell line for the 5HT1E receptor, designated 5 HT1E-7, was deposited on Nov. […] The cell line for the 5HT1F receptor, designated L-5-HT1F, was deposited on Dec. […] These preparations were suspended in 50 mM Tris-HCl buffer (pH 7.4 at 37° C.) containing 10 mM MgCl2, 0.2 mM EDTA, 10 μM pargyline, and 0.1% ascorbate.

[4] = biological target: T3, human histamine H2 receptor (Homo sapiens, UniProt P25021); assay: [3H]tiotidine binding, histamine H2 receptor; details: Table 2, cloned human receptor; read-out: Histamine H2 (pK1) (converted)
T3 construct: host or cells: COS-7, transient, DEAE-dextran
Text: The coding sequence of the human H2 receptor was obtained from a human placenta genomic library, and cloned into the cloning site of PCEXV-3 eukaryotic expression vector. The plasmid DNA for the H2 receptor is designated pcEXV-H2, and was deposited on Nov. […] This construct was transfected into COS-7 cells by the DEAE-dextran method.

[5] = biological target: T4, human 5HT2 receptor (Homo sapiens, UniProt P28223); assay: [3H]ketanserin competition binding, 5HT2 receptor
T4 construct: host or cells: COS-7 (DEAE-dextran); the same paragraph also names a deposited line L-NGC-5HT2
Experimental: The coding sequence of the human 5HT2 receptor was obtained from a human brain cortex cDNA library, and cloned into the cloning site of pCEXV-3 eukaryotic expression vector. This construct was transfected into COS-7 cells by the DEAE-dextran method. […] Nonspecific binding was defined by the addition of 10 μM mianserin.

[6] = biological target: T5, human 5HT1Dα receptor (Homo sapiens, UniProt P28221); assay: [3H]serotonin competition binding, 5HT1Dα receptor
T5 construct: host or cells: LM(tk-) clonal cell line Ltk-8-30-84
Experimental: as §1

[7] = biological target: T6, human 5HT1Dβ receptor (Homo sapiens, UniProt P28222); assay: [3H]serotonin competition binding, 5HT1Dβ receptor
T6 construct: host or cells: LM(tk-) clonal cell line Ltk-11
Experimental: as §1

[8] = biological target: T7, human 5HT1F receptor (Homo sapiens, UniProt P30939); assay: [3H]serotonin competition binding, 5HT1F receptor
T7 construct: host or cells: LM(tk-) clonal cell line L-5-HT1F
T7 sequence (P30939 1-366): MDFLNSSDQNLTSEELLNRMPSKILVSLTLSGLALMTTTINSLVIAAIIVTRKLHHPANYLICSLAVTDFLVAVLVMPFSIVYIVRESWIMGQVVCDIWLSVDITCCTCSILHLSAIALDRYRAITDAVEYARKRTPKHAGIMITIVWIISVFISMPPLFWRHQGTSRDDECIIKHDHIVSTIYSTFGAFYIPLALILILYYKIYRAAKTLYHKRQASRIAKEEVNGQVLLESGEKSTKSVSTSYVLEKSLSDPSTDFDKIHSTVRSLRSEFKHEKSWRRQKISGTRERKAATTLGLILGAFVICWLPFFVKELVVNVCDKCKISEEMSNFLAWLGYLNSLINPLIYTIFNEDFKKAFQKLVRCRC
Experimental: as §1

[9] = biological target: T8, human D2 receptor (Homo sapiens, UniProt P14416); assay: [3H]spiperone binding, dopamine D2 receptor
T8 construct: host or cells: COS-7, transient, DEAE-dextran
Experimental: The potency of α1 antagonists at the D2 receptor was determined using membrane preparations from COS-7 cells transfected with the gene encoding the human D2 receptor. The coding region for the human D2 receptor was obtained from a human striatum cDNA library, and cloned into the cloning site of PCDNA 1 eukariotic expression vector. The plasmid DNA for the D2 receptor is designated pcEXV-D2, and was deposited on Nov. […] This construct was transfected into COS-7 cells by the DEAE-dextran method. […] The cell lysates were incubated with [3H]spiperone (2 nM), using 10 μM (+)Butaclamol to determine nonspecific binding.

[10] = system: Sprague-Dawley normotensive rats; assay: Rat orthostatic hypotension model; type: in vivo; details: for BP fall / orthostatic fall in BP: i.v.; for orthostatic fall in BP: second tilt
Experimental: Adult male Sprague-Dawley normotensive rats were anesthetized with sodium pentobarbital (45 mg/kg, i.v.). The femoral vein and artery of the right hindlimb were cannulated for drug administration and blood pressure monitoring, respectively. Heart rate was determined by a cardiotachometer triggered by the blood pressure pulse. The rats were secured in the supine position to a board that could be tilted 90 degrees. When blood pressure and heart rate had stabilized, the rats were subjected to a 90 degree vertical (head up) tilt for 60 seconds. Changes in blood pressure and heart rate from pre-tilt levels were monitored continuously. The rats were returned to the supine position and blood pressure and heart rate were allowed to stabilize. […] When blood pressure had stabilized, the rats were subjected to a second tilt and blood pressure and heart rate were recorded as described above. […] Data from the second tilt are used in statistical analysis.

[11] = biological target: T9, calcium channels (Rattus norvegicus, UniProt P22002); assay: [3H]nitrendipine competition binding, calcium channels, rat cardiac muscle membranes; details: Table 2, rat cardiac muscle membranes; read-out: Calcium Channel (pK1) (converted)
T9 construct: from tissue; host or cells: rat cardiac muscle membranes
Experimental: Briefly, the tissue was minced and homogenized in 50 mM Tris-HCl (pH 7.4) containing 0.1 mM phenylmethylsulfonyl fluoride. The homogenates were centrifuged at 1000 g for 15 minutes, the resulting supernatant was centrifuged at 45,000 g for 15 minutes. The 45,000 g pellet was suspended in buffer and centrifuged a second time.

[12] = system: 5-α-reductase; details: BPH patients; cited from earlier work

T3 sequence (P25021 whole entry): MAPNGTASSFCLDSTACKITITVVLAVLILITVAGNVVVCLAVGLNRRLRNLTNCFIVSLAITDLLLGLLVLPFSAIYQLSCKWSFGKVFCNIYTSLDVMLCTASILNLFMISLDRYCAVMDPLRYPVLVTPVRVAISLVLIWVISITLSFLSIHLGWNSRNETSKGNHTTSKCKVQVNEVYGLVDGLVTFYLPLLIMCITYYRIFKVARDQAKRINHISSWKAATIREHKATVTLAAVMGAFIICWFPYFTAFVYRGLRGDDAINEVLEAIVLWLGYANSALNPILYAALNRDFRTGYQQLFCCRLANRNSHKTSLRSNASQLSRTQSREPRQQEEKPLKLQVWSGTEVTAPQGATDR
T8 sequence (P14416 whole entry): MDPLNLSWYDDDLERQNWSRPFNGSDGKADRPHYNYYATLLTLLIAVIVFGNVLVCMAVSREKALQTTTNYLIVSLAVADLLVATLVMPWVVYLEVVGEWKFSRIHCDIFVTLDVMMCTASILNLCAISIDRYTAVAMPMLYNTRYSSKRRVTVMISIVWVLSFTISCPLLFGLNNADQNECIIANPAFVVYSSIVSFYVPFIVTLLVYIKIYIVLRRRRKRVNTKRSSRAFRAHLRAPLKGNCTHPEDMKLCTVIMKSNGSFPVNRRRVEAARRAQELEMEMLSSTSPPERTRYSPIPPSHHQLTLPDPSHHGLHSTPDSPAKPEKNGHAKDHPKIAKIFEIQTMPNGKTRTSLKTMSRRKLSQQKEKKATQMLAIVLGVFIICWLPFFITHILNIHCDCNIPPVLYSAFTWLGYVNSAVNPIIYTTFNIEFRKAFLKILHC
T2 sequence (P28566 whole entry): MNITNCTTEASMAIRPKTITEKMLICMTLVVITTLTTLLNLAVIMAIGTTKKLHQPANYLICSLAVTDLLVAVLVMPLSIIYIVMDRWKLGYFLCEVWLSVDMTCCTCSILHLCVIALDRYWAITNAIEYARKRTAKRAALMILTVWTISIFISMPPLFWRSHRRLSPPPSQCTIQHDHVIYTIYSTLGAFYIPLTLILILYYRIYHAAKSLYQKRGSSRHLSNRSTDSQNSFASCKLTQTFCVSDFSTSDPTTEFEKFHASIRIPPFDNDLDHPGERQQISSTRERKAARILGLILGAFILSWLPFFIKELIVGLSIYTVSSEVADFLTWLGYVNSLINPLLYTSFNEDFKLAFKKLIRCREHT
T9 sequence (P22002 whole entry, other chains not shown): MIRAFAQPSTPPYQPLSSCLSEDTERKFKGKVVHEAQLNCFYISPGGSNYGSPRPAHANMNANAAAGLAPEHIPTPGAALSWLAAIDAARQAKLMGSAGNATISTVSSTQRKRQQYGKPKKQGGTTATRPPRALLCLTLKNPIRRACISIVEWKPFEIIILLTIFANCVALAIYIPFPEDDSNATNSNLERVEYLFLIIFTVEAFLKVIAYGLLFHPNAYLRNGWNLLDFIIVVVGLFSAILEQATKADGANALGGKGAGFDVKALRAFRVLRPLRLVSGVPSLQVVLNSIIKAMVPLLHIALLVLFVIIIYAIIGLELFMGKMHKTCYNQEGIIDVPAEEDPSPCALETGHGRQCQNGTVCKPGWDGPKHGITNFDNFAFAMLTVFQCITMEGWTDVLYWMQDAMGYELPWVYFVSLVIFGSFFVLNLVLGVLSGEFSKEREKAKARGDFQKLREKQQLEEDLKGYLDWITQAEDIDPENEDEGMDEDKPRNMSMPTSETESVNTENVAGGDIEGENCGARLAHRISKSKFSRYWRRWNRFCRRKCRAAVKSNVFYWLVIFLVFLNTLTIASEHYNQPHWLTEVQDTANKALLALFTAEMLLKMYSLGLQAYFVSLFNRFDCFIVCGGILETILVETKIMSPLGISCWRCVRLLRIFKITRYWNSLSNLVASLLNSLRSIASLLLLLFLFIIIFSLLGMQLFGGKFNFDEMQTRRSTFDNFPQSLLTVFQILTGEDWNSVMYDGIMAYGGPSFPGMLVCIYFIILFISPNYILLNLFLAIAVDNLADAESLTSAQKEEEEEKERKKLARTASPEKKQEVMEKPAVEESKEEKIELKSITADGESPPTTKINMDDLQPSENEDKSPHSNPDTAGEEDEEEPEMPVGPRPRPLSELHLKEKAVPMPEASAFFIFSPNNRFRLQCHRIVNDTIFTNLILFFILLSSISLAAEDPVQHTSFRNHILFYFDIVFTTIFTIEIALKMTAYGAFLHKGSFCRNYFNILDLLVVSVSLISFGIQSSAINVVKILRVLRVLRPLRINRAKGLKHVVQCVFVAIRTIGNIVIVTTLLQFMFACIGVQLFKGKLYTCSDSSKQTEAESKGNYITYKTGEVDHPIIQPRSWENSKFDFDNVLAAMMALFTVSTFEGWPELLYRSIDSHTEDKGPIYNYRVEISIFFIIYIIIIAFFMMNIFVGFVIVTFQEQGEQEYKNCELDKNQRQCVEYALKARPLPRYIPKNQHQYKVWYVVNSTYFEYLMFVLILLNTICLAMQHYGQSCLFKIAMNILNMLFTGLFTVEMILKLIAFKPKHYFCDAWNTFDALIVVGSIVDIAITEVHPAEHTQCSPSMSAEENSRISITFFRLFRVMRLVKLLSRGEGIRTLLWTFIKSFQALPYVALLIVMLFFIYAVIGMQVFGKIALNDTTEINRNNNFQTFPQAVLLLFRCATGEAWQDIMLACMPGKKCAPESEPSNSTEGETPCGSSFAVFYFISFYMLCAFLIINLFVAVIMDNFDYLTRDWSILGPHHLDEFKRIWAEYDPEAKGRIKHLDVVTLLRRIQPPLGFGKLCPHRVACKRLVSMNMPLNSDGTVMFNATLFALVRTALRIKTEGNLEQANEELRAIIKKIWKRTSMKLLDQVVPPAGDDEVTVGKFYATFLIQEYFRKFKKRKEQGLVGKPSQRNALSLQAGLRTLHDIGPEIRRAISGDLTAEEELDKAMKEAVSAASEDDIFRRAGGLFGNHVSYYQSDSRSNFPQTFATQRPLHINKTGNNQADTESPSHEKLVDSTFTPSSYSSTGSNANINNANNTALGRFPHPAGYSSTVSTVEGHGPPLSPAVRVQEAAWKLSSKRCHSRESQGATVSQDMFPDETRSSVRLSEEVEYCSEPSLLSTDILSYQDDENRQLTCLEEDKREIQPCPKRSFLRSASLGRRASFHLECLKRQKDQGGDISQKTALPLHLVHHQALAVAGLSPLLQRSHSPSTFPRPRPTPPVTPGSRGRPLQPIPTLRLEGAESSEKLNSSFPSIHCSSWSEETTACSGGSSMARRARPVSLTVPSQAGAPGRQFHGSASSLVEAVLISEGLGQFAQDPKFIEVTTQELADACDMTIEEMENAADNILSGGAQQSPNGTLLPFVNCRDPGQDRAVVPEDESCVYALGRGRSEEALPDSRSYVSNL
T9 sequence (P54290 25-944 partner limits assumed, other chains not shown): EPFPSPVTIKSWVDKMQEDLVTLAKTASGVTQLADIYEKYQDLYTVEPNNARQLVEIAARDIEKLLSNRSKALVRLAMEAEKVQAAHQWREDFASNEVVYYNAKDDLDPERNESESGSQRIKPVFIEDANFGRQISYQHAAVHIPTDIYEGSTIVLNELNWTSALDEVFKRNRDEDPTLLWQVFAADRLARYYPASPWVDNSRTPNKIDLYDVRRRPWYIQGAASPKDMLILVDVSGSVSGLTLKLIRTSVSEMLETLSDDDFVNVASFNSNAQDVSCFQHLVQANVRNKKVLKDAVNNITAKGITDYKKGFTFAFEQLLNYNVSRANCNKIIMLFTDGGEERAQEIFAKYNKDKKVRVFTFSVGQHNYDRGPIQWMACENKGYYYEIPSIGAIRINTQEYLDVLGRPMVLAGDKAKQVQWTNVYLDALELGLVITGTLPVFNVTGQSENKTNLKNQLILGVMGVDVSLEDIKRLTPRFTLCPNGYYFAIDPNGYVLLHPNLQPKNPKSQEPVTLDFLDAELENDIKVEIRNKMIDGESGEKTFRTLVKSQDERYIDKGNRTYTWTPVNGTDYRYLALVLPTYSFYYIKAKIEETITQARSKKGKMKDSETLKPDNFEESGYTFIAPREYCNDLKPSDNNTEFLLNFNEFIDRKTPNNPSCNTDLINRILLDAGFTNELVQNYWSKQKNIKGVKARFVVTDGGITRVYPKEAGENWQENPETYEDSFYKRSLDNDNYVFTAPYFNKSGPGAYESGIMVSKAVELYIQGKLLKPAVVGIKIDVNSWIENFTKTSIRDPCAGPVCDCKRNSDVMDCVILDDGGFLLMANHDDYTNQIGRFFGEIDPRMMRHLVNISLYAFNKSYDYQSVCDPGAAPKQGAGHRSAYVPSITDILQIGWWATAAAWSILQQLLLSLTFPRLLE
T9 sequence (P54290 945-1091 partner limits assumed, other chains not shown): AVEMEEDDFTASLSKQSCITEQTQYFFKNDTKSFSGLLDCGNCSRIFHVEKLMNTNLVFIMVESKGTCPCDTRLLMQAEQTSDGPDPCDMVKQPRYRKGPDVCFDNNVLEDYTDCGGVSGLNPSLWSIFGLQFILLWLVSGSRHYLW
T5 sequence (P28221 whole entry): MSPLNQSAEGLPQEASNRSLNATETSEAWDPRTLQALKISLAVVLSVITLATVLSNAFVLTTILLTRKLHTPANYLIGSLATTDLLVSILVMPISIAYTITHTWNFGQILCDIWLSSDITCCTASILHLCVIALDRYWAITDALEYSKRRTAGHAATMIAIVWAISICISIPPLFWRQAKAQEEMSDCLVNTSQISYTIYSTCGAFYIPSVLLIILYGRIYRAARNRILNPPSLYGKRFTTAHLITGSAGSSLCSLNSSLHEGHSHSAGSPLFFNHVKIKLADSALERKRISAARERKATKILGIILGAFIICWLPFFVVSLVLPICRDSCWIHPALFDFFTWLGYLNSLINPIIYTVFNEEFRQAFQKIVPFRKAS

**Q.** Which melting point does the source give for `O=C(CCCN1CCC(NC(=O)c2ccccc2)CC1)c1ccc(Cl)cc1` (as salt: HCl) [Example 4, 1-[3-(4-chlorobenzoyl)propyl]-4-benzamidopiperidine] here?
**A.** 243 to 244 °C

**Q.** With `COC(=O)C1=C(C)NC(C)=C(C(=O)NCCCN2CCC(c3ccccc3)(c3ccccc3)CC2)C1c1ccc([N+](=O)[O-])cc1.Cl.O` (stereo not drawn) [Compound 2, 2,6-Dimethyl-4-(4-nitrophenyl)-1,4-dihydropyridine-3,5-dicarboxylic acid N-[3-(4,4-diphenylpiperidin-1-yl)-propyl]amide methyl ester hydrochloride hydrate] as the molecule, how does the “Human Prostate (pA)” value [1] read?
**A.** 8.94

**Q.** What about the Ki [2] of the same molecule?
**A.** 69.2 nM

**Q.** And the Ki [3]?
**A.** > 10 µM

**Q.** What about the Ki [4] of the same molecule?
**A.** 0.0331 µM

**Q.** What about the Ki [5] of the same molecule?
**A.** > 1000 nM

**Q.** And the Ki [6]?
**A.** > 100 nM

**Q.** And the Ki [7]?
**A.** > 1000 nM

**Q.** And the Ki [8]?
**A.** > 10 µM

**Q.** What about the Ki [9] of the same molecule?
**A.** > 0.1 µM

**Q.** What does the source list for `COc1cc2nc(N3CCN(C(=O)c4ccco4)CC3)nc(N)c2cc1OC` [Prazosin]?
**A.** Human Prostate (pA) [1]: 9.08; BP fall ([10]; Dose 1, 10 ug/kg): +; orthostatic fall in BP ([10]; Dose 1, 10 ug/kg): +; BP fall ([10]; Dose 2, 100 ug/kg): ++; orthostatic fall in BP ([10]; Dose 2, 100 ug/kg): ++ or +++; BP fall ([10]; Dose 3, 1000 ug/kg): +++; orthostatic fall in BP ([10]; Dose 3, 1000 ug/kg): ++ or +++; orthostasis (Table 3) ([10]; doses 10, 100, 1000 ug/kg): consistently cause orthostasis at the lowest dose; Ki [11]: 26.9 µM

**Q.** With `CC(C)(C)NC(=O)[C@H]1CC[C@H]2[C@@H]3CC[C@H]4NC(=O)C=C[C@]4(C)[C@H]3CC[C@]12C` [Proscar] as the molecule, how does the “patients in whom effective” value [12] read?
**A.** 30%

**Q.** What about the “period required to show results” value [12] of the same molecule?
**A.** up to 6 months

**Q.** With `COc1cc2nc(N3CCN(C(=O)C4CCCO4)CC3)nc(N)c2cc1OC` (stereo not drawn) [Terazosin, 2 [4-(Tetrahydro-2-furoyl)piperazinyl]-4-amino-6,7-dimethoxyquinazoline hydrochloride, reference compound] as the molecule, how does the “Human Prostate (pA)” value [1] read?
**A.** 7.30

**Q.** And the Ki [4]?
**A.** 9.12 µM

**Q.** What about the Ki ([9]; Table 2, cloned human receptor, read-out: Dopamine D2 (pK1)) of the same molecule?
**A.** > 10 µM

Reference: patent US6602888B2, “Use of α1C specific compounds to treat benign prostatic hyperplasia” (Synaptic Pharmaceutical Corporation, priority 1992, dated 2003)
